{"source": "PubChem BioAssay AID1919015", "about": "(Molecular Pharmacology Branch, DTP, NCI, 2023)", "test_system": "OVCAR-5 complex spheroids with HUVEC/MSC, viability, % test/control", "assay": "Anticancer human tumor OVCAR-5 cell line growth inhibition [AhR];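 on all read-outs here: spheroids exposed to compounds for 7 days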;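 on viability, T/C: 100% = DMSO vehicle control wells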", "settings": "for IC50: curve of first compound; for viability, T/C: stronger effect = lower value", "how_it_was_run": "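Agents were dosed in half-log steps down from roughly clinical Cmax, or from 10 microM where Cmax was unknown, alone and with AhR antagonists. Read-out: percent test/control growth of tumor spheroids containing HUVEC and MSC stromal cells.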", "data": [{"smiles": "CC1(C)CCC(CN2CCN(c3ccc(C(=O)NS(=O)(=O)c4ccc(NCC5CCOCC5)c([N+](=O)[O-])c4)c(Oc4cnc5[nH]ccc5c4)c3)CC2)=C(c2ccc(Cl)cc2)C1", "note": "+ Cc1cncc(-c2nc(NCCc3c[nH]c4ccccc34)c3ncn(C(C)C)c3n2)c1", "values": [{"measurement": "IC50", "setting": "second compound 0.1 µM", "result": "> 10", "unit": "µM"}, {"measurement": "IC50", "setting": "second compound 0.316 µM", "result": "> 10", "unit": "µM"}, {"measurement": "IC50", "setting": "second compound 1 µM", "result": "> 10", "unit": "µM"}, {"measurement": "IC50", "setting": "second compound 3.16 µM", "result": "> 10", "unit": "µM"}, {"measurement": "IC50", "setting": "second compound 10 µM", "result": "< 0.0316", "unit": "µM"}, {"measurement": "viability, T/C", "setting": "second compound 0.1 µM, first compound 0.0316 µM", "result": 105, "unit": "%"}, {"measurement": "viability, T/C", "setting": "second compound 0.1 µM, first compound 0.1 µM", "result": 103, "unit": "%"}, {"measurement": "viability, T/C", "setting": "second compound 0.1 µM, first compound 0.316 µM", "result": 106, "unit": "%"}, {"measurement": "viability, T/C", "setting": "second compound 0.1 µM, first compound 1 µM", "result": 106, "unit": "%"}, {"measurement": "viability, T/C", "setting": "second compound 0.1 µM, first compound 3.16 µM", "result": 109, "unit": "%"}, {"measurement": "viability, T/C", "setting": "second compound 0.1 µM, first compound 10 µM", "result": 90.1, "unit": "%"}, {"measurement": "viability, T/C", "setting": "second compound 0.316 µM, first compound 0.0316 µM", "result": 101, "unit": "%"}, {"measurement": "viability, T/C", "setting": "second compound 0.316 µM, first compound 0.1 µM", "result": 103, "unit": "%"}, {"measurement": "viability, T/C", "setting": "second compound 0.316 µM, first compound 0.316 µM", "result": 102, "unit": "%"}, {"measurement": "viability, T/C", "setting": "second compound 0.316 µM, first compound 1 µM", "result": 105, "unit": "%"}, {"measurement": "viability, T/C", "setting": "second compound 0.316 µM, first compound 3.16 µM", "result": 109, "unit": "%"}, {"measurement": "viability, T/C", "setting": "second compound 0.316 µM, first compound 10 µM", "result": 89.5, "unit": "%"}, {"measurement": "viability, T/C", "setting": "second compound 1 µM, first compound 0.0316 µM", "result": 101, "unit": "%"}, {"measurement": "viability, T/C", "setting": "second compound 1 µM, first compound 0.1 µM", "result": 100, "unit": "%"}, {"measurement": "viability, T/C", "setting": "second compound 1 µM, first compound 0.316 µM", "result": 102, "unit": "%"}, {"measurement": "viability, T/C", "setting": "second compound 1 µM, first compound 1 µM", "result": 103, "unit": "%"}, {"measurement": "viability, T/C", "setting": "second compound 1 µM, first compound 3.16 µM", "result": 104, "unit": "%"}, {"measurement": "viability, T/C", "setting": "second compound 1 µM, first compound 10 µM", "result": 86.8, "unit": "%"}, {"measurement": "viability, T/C", "setting": "second compound 3.16 µM, first compound 0.0316 µM", "result": 81.5, "unit": "%"}, {"measurement": "viability, T/C", "setting": "second compound 3.16 µM, first compound 0.1 µM", "result": 85.6, "unit": "%"}, {"measurement": "viability, T/C", "setting": "second compound 3.16 µM, first compound 0.316 µM", "result": 86.3, "unit": "%"}, {"measurement": "viability, T/C", "setting": "second compound 3.16 µM, first compound 1 µM", "result": 83.4, "unit": "%"}, {"measurement": "viability, T/C", "setting": "second compound 3.16 µM, first compound 3.16 µM", "result": 88.5, "unit": "%"}, {"measurement": "viability, T/C", "setting": "second compound 3.16 µM, first compound 10 µM", "result": 75.3, "unit": "%"}, {"measurement": "viability, T/C", "setting": "second compound 10 µM, first compound 0.0316 µM", "result": 4.28, "unit": "%"}, {"measurement": "viability, T/C", "setting": "second compound 10 µM, first compound 0.1 µM", "result": 4.26, "unit": "%"}, {"measurement": "viability, T/C", "setting": "second compound 10 µM, first compound 0.316 µM", "result": 5.72, "unit": "%"}, {"measurement": "viability, T/C", "setting": "second compound 10 µM, first compound 1 µM", "result": 3.52, "unit": "%"}, {"measurement": "viability, T/C", "setting": "second compound 10 µM, first compound 3.16 µM", "result": 4.43, "unit": "%"}, {"measurement": "viability, T/C", "setting": "second compound 10 µM, first compound 10 µM", "result": 9.47, "unit": "%"}]}, {"smiles": "CCN(c1cc(-c2ccc(CN3CCOCC3)cc2)cc(C(=O)NCc2c(C)cc(C)[nH]c2=O)c1C)C1CCOCC1", "note": "+ Cc1cncc(-c2nc(NCCc3c[nH]c4ccccc34)c3ncn(C(C)C)c3n2)c1", "values": [{"measurement": "IC50", "setting": "second compound 0.1 µM", "result": "> 3", "unit": "µM"}, {"measurement": "IC50", "setting": "second compound 0.316 µM", "result": "> 3", "unit": "µM"}, {"measurement": "IC50", "setting": "second compound 1 µM", "result": "> 3", "unit": "µM"}, {"measurement": "IC50", "setting": "second compound 3.16 µM", "result": "> 3", "unit": "µM"}, {"measurement": "IC50", "setting": "second compound 10 µM", "result": "< 0.00949", "unit": "µM"}, {"measurement": "viability, T/C", "setting": "second compound 0.1 µM, first compound 0.00949 µM", "result": 101, "unit": "%"}, {"measurement": "viability, T/C", "setting": "second compound 0.1 µM, first compound 0.03 µM", "result": 101, "unit": "%"}, {"measurement": "viability, T/C", "setting": "second compound 0.1 µM, first compound 0.0949 µM", "result": 98.9, "unit": "%"}, {"measurement": "viability, T/C", "setting": "second compound 0.1 µM, first compound 0.3 µM", "result": 97.3, "unit": "%"}, {"measurement": "viability, T/C", "setting": "second compound 0.1 µM, first compound 0.949 µM", "result": 97.1, "unit": "%"}, {"measurement": "viability, T/C", "setting": "second compound 0.1 µM, first compound 3 µM", "result": 96.7, "unit": "%"}, {"measurement": "viability, T/C", "setting": "second compound 0.316 µM, first compound 0.00949 µM", "result": 102, "unit": "%"}, {"measurement": "viability, T/C", "setting": "second compound 0.316 µM, first compound 0.03 µM", "result": 100, "unit": "%"}, {"measurement": "viability, T/C", "setting": "second compound 0.316 µM, first compound 0.0949 µM", "result": 96.5, "unit": "%"}, {"measurement": "viability, T/C", "setting": "second compound 0.316 µM, first compound 0.3 µM", "result": 97.8, "unit": "%"}, {"measurement": "viability, T/C", "setting": "second compound 0.316 µM, first compound 0.949 µM", "result": 94.7, "unit": "%"}, {"measurement": "viability, T/C", "setting": "second compound 0.316 µM, first compound 3 µM", "result": 98.2, "unit": "%"}, {"measurement": "viability, T/C", "setting": "second compound 1 µM, first compound 0.00949 µM", "result": 93.4, "unit": "%"}, {"measurement": "viability, T/C", "setting": "second compound 1 µM, first compound 0.03 µM", "result": 93.4, "unit": "%"}, {"measurement": "viability, T/C", "setting": "second compound 1 µM, first compound 0.0949 µM", "result": 97, "unit": "%"}, {"measurement": "viability, T/C", "setting": "second compound 1 µM, first compound 0.3 µM", "result": 90.6, "unit": "%"}, {"measurement": "viability, T/C", "setting": "second compound 1 µM, first compound 0.949 µM", "result": 89.7, "unit": "%"}, {"measurement": "viability, T/C", "setting": "second compound 1 µM, first compound 3 µM", "result": 89.6, "unit": "%"}, {"measurement": "viability, T/C", "setting": "second compound 3.16 µM, first compound 0.00949 µM", "result": 78.5, "unit": "%"}, {"measurement": "viability, T/C", "setting": "second compound 3.16 µM, first compound 0.03 µM", "result": 79, "unit": "%"}, {"measurement": "viability, T/C", "setting": "second compound 3.16 µM, first compound 0.0949 µM", "result": 80.2, "unit": "%"}, {"measurement": "viability, T/C", "setting": "second compound 3.16 µM, first compound 0.3 µM", "result": 75.3, "unit": "%"}, {"measurement": "viability, T/C", "setting": "second compound 3.16 µM, first compound 0.949 µM", "result": 72.7, "unit": "%"}, {"measurement": "viability, T/C", "setting": "second compound 3.16 µM, first compound 3 µM", "result": 70.4, "unit": "%"}, {"measurement": "viability, T/C", "setting": "second compound 10 µM, first compound 0.00949 µM", "result": 14.8, "unit": "%"}, {"measurement": "viability, T/C", "setting": "second compound 10 µM, first compound 0.03 µM", "result": 16, "unit": "%"}, {"measurement": "viability, T/C", "setting": "second compound 10 µM, first compound 0.0949 µM", "result": 15.4, "unit": "%"}, {"measurement": "viability, T/C", "setting": "second compound 10 µM, first compound 0.3 µM", "result": 6.52, "unit": "%"}, {"measurement": "viability, T/C", "setting": "second compound 10 µM, first compound 0.949 µM", "result": 2.63, "unit": "%"}, {"measurement": "viability, T/C", "setting": "second compound 10 µM, first compound 3 µM", "result": 1.33, "unit": "%"}]}]}
